# Measured values from ChEMBL document CHEMBL1201862, “PubChem BioAssay data set” (2004).
# The source made the active and inactive calls.
# Experiments:
# Coagulation factor XII = target: T1, Coagulation factor XII (Homo sapiens, UniProt P00748); format: functional;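 also: activated factor XIIa alpha cleaving a fluorogenic AMC peptide substrate; inhibitor potency from loss of enzyme activity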
# T1 sequence (P00748 whole entry): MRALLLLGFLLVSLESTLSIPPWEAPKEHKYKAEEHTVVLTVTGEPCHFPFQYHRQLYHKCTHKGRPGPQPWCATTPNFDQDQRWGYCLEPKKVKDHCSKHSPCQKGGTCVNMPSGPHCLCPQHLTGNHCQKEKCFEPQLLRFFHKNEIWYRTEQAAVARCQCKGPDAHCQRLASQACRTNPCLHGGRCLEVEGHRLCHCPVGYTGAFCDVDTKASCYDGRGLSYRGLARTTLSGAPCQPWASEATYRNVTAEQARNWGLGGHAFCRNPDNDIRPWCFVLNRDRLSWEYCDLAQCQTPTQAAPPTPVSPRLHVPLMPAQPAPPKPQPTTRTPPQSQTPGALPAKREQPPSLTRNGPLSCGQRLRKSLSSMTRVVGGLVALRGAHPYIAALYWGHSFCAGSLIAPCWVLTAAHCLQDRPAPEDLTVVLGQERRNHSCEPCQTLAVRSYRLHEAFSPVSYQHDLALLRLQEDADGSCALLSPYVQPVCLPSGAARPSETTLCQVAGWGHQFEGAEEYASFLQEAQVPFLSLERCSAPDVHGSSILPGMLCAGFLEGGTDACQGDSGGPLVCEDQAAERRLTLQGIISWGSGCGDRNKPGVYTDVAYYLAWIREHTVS
# [1] = target: T2, Long-chain-fatty-acid--AMP ligase FadD28 (Mycobacterium tuberculosis, UniProt P9WQ59); test: Fluorescence polarization aasay to screen for inhibitors that compete for the binding of FadD28 to a bisubstrate Measured in Biochemical System Using Plate Reader - 2147-01_Inhibitor_Dose_CherryPick_Activity.; format: functional, Mycobacterium tuberculosis H37Rv
# T2 sequence (P9WQ59 whole entry): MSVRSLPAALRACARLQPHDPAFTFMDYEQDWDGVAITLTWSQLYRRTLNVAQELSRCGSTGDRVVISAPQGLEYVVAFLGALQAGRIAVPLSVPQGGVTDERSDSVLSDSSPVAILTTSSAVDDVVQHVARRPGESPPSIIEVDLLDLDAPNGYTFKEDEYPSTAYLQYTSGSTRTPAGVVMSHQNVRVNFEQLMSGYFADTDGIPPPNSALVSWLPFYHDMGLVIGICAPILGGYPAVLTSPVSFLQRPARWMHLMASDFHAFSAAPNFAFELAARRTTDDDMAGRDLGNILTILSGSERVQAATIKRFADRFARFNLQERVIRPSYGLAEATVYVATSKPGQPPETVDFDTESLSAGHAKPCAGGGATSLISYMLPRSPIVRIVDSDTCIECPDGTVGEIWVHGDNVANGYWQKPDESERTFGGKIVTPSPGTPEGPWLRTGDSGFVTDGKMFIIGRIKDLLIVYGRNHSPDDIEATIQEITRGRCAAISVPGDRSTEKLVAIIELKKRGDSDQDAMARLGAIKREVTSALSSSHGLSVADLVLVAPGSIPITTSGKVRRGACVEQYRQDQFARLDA
# [2] = target: Eukaryotic translation initiation factor 4E (Mus musculus, UniProt P63073); test: eIF4E–eIF4G protein interaction inhibitors, dose response, biochemical, TR-FRET (AID 855); format: functional;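 also: potency for disrupting eIF4E binding to eIF4GI seen as loss of FRET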
# [3] = target: T3, Rac GTPase-activating protein 1 (Homo sapiens, UniProt Q9H0H5); test: MgcRacGAP GTPase-activating activity inhibitors, confirmation, biochemical, ADP Hunter fluorescence, primary and confirmatory (AID 624330); format: functional
# T3 sequence (Q9H0H5 whole entry): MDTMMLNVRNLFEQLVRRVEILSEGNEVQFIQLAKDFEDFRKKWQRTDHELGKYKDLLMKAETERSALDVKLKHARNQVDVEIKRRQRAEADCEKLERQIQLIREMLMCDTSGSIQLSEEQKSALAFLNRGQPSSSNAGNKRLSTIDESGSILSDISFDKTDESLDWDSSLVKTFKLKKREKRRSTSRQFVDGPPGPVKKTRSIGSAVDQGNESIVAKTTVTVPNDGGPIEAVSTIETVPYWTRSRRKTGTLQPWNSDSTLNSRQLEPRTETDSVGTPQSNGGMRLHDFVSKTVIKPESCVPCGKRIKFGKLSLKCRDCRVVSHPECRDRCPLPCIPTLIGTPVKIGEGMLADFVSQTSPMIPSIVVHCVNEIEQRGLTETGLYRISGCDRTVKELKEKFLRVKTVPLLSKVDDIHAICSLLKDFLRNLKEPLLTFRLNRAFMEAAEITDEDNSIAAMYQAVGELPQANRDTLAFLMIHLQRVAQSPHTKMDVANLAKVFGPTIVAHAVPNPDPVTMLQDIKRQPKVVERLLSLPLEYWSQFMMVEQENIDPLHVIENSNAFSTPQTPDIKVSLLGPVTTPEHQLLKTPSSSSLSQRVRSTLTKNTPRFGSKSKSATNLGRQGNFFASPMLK
# [4] = target: DNA dC->dU-editing enzyme APOBEC-3G (Homo sapiens, UniProt Q9HC16); test: Dose Response confirmation of small molecule APOBEC3G DNA Deaminase Inhibitors via a fluorescence-based single-stranded DNA deaminase assay. [Related pubchem assays (depositor defined):AID493012, AID493028]; format: functional
# [5] = target: DNA dC->dU-editing enzyme APOBEC-3A (Homo sapiens, UniProt P31941); test: APOBEC3A DNA deaminase inhibitors, dose response, biochemical (AID 504722); format: functional
# Nonstructural protein 1 = Nonstructural protein 1 (Influenza A virus, UniProt Q194T2); format: functional, Influenza A virus (A/California/07/2009(H1N1))
# [6] = target: T4, Heat shock factor protein 1 (Mus musculus, UniProt P38532); test: HSF1 potentiators in luciferase reporter cells, confirmation, cell-based, NIH3T3, luminescence, dose retest (AID 435004); format: functional;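 also: stress induced by proteasome inhibitor MG132 added 30 min after compound; luciferase reporter driven by HSF1 response element in NIH3T3 cells; actives raise luminescence as potentiators of the MG132 stress response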
# T4 sequence (P38532 whole entry): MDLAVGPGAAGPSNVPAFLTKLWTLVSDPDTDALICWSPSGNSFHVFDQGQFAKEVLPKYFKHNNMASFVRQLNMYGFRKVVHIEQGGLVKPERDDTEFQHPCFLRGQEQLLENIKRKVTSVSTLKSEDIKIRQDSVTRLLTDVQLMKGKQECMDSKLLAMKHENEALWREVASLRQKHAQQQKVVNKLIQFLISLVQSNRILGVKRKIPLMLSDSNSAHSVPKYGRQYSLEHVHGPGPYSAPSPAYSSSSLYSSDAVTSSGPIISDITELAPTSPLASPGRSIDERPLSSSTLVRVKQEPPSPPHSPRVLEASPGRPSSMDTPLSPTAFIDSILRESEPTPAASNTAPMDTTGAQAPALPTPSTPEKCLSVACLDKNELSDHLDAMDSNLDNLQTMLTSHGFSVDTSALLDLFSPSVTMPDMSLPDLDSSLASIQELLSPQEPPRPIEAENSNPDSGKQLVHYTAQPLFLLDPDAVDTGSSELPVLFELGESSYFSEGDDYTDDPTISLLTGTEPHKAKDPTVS
# [7] = target: Dual specificity tyrosine-phosphorylation-regulated kinase 1A (Rattus norvegicus, UniProt Q63470); format: biochemical, Homo sapiens
# Protein RecA = target: T5, Protein RecA (Mycobacterium tuberculosis, UniProt P9WHJ3); test: Fluorescence Cell-Free Homogeneous Dose Retest to Identify Inhibitors of RecA-Intein Splicing Activity. [Related pubchem assays (depositor defined):AID2097, AID2223, AID489010, AID492950]; format: functional
# T5 sequence (P9WHJ3 whole entry): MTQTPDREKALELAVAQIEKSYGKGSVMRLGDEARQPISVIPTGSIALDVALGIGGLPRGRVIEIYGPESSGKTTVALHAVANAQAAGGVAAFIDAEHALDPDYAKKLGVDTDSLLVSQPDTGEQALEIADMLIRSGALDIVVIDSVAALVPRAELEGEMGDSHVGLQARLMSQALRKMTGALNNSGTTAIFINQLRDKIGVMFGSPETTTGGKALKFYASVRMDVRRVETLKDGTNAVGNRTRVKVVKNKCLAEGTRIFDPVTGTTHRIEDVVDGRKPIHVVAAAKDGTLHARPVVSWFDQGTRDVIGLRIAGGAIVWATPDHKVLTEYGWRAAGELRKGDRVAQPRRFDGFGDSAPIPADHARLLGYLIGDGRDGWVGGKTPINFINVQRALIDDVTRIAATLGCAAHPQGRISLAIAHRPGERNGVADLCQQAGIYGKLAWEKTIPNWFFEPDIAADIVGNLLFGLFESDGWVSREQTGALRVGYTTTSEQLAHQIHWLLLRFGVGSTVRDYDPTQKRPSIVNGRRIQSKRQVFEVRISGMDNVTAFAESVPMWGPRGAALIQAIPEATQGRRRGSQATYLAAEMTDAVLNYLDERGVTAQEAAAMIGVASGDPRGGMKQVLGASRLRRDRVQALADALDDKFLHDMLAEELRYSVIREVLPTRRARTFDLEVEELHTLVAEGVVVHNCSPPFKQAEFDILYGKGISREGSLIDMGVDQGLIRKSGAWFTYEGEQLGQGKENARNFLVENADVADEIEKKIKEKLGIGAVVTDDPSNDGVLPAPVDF
# [8] = target: T6, Replicative DNA helicase DnaB (Mycobacterium tuberculosis, UniProt P9WMR3); test: DnaB intein splicing inhibitors, dose response, biochemical, cell-free fluorescence (AID 449749); format: functional
# T6 sequence (P9WMR3 whole entry): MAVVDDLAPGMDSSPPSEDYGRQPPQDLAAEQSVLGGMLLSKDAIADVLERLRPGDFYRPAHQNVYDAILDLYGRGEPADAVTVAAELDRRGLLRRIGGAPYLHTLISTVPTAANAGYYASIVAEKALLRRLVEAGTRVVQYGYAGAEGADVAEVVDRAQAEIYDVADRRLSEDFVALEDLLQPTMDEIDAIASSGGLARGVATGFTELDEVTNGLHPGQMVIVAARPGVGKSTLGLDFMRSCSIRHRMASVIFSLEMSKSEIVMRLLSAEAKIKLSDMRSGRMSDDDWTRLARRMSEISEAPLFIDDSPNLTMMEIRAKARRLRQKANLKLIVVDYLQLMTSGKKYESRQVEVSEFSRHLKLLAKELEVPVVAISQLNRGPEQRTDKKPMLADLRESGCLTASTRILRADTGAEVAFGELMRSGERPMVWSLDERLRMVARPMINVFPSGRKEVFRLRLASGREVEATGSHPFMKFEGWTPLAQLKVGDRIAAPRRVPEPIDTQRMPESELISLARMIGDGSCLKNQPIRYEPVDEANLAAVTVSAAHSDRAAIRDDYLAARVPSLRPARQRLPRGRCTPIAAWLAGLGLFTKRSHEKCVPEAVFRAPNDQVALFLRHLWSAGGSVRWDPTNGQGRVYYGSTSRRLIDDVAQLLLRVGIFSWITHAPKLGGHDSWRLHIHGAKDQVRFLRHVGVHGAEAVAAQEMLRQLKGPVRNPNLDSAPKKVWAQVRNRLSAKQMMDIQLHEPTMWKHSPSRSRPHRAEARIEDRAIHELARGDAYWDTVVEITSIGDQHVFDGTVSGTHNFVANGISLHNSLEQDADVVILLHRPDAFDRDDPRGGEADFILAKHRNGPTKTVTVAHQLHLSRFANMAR
# Trypsin = Trypsin (Sus scrofa, UniProt P00761); test: porcine trypsin inhibitors, dose response, selectivity assay for Rce1 protease inhibitor project, biochemical, quenched peptide fluorescence, cherry-pick (AID 488789)
# [9] = target: Peroxisome proliferator-activated receptor gamma/Nuclear receptor coactivator 1 (Homo sapiens, UniProt P37231); format: functional;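 also: agonist potency as compounds enhance coactivator SRC-1 recruitment to PPARgamma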
# [10] = target: Peroxisome proliferator-activated receptor gamma/Nuclear receptor coactivator 2 (Homo sapiens, UniProt P37231); format: functional;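 also: agonist potency for raising coactivator recruitment to the receptor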
# [11] = target: Peroxisome proliferator-activated receptor gamma/Nuclear receptor coactivator 3 (Homo sapiens, UniProt P37231); format: functional;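 also: agonist potency for raising coactivator recruitment to the receptor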
# Chain of DNA dC->dU-editing enzyme APOBEC-3G (Q9HC16 whole entry): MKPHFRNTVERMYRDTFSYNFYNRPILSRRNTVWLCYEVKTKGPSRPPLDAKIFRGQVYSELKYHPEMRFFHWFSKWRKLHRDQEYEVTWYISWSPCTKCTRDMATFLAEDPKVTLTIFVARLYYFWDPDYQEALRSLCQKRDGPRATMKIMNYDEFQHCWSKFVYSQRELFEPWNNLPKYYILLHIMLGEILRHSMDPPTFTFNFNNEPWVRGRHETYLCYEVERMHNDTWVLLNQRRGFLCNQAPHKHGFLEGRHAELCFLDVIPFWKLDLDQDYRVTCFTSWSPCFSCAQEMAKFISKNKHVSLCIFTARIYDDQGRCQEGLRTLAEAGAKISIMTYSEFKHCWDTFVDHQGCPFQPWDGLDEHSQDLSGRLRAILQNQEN
# Chain of Eukaryotic translation initiation factor 4E (P63073 whole entry): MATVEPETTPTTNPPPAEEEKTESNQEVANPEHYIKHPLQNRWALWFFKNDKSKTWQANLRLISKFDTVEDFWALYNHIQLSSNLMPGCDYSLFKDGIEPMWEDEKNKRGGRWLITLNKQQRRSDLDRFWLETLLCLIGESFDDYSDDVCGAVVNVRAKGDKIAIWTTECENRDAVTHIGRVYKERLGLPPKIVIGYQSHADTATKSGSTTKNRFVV
# Chain of DNA dC->dU-editing enzyme APOBEC-3A (P31941 whole entry): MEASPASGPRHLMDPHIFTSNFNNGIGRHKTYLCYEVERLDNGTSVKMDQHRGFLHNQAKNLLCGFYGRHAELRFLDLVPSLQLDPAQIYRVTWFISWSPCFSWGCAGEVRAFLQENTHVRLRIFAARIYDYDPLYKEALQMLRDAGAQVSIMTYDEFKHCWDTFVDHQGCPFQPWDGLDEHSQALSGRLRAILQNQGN
# Chain of Peroxisome proliferator-activated receptor gamma/Nuclear receptor coactivator 2 (P37231 whole entry): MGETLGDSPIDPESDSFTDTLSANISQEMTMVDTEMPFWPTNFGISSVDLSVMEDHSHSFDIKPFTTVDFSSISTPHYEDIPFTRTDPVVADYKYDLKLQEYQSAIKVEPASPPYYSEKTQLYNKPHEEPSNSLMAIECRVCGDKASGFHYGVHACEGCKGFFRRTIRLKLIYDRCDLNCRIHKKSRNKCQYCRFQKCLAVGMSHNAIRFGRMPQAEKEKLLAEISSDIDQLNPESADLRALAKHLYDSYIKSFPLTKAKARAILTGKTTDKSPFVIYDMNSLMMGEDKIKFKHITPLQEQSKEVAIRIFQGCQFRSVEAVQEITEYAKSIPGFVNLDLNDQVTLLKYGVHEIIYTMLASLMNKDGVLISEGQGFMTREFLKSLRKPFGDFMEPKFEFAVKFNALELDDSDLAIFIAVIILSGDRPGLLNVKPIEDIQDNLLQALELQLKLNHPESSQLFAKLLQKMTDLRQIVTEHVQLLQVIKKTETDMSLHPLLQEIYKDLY
# Chain of Peroxisome proliferator-activated receptor gamma/Nuclear receptor coactivator 2 (Q15596 whole entry, further chain): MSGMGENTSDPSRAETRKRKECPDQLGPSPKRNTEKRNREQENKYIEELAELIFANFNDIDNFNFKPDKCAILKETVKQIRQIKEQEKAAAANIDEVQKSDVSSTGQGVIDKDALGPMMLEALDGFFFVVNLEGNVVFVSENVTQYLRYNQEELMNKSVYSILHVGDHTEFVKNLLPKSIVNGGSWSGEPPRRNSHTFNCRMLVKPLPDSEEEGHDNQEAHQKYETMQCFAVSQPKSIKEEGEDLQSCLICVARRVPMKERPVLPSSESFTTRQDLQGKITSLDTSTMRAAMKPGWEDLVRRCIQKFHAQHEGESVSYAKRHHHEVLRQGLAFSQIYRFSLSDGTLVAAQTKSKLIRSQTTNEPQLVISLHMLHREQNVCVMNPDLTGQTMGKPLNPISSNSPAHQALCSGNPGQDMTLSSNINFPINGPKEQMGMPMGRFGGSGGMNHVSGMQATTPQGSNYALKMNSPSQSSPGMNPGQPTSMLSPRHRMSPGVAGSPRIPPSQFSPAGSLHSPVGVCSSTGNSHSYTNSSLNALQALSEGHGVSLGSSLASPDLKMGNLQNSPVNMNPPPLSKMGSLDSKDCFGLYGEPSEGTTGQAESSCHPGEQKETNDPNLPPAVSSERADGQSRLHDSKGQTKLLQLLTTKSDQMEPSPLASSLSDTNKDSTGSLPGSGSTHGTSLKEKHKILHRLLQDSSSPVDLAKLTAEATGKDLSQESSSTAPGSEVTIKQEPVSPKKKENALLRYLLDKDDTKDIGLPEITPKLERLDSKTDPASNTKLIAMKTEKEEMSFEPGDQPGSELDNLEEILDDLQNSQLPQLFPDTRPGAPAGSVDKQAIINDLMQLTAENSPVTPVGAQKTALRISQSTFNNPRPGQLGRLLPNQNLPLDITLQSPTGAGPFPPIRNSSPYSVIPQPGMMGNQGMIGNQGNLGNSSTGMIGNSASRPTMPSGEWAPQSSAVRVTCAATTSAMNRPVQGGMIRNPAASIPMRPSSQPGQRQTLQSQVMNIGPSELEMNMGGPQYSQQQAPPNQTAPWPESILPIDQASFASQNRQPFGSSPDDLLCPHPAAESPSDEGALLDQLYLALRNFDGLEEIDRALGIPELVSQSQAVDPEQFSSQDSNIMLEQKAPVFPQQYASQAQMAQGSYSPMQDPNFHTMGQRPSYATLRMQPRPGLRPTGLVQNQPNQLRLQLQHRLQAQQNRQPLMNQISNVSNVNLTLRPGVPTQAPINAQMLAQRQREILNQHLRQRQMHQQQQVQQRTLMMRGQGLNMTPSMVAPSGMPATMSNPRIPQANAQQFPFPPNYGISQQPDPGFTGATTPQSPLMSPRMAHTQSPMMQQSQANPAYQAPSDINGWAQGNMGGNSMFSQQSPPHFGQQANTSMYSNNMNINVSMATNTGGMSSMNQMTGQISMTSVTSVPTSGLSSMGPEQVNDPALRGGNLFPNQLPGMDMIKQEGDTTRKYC
# Chain of Peroxisome proliferator-activated receptor gamma/Nuclear receptor coactivator 1 (P37231 whole entry): as the sequence (P37231 whole entry) above
# Chain of Peroxisome proliferator-activated receptor gamma/Nuclear receptor coactivator 1 (Q15788 whole entry, further chain): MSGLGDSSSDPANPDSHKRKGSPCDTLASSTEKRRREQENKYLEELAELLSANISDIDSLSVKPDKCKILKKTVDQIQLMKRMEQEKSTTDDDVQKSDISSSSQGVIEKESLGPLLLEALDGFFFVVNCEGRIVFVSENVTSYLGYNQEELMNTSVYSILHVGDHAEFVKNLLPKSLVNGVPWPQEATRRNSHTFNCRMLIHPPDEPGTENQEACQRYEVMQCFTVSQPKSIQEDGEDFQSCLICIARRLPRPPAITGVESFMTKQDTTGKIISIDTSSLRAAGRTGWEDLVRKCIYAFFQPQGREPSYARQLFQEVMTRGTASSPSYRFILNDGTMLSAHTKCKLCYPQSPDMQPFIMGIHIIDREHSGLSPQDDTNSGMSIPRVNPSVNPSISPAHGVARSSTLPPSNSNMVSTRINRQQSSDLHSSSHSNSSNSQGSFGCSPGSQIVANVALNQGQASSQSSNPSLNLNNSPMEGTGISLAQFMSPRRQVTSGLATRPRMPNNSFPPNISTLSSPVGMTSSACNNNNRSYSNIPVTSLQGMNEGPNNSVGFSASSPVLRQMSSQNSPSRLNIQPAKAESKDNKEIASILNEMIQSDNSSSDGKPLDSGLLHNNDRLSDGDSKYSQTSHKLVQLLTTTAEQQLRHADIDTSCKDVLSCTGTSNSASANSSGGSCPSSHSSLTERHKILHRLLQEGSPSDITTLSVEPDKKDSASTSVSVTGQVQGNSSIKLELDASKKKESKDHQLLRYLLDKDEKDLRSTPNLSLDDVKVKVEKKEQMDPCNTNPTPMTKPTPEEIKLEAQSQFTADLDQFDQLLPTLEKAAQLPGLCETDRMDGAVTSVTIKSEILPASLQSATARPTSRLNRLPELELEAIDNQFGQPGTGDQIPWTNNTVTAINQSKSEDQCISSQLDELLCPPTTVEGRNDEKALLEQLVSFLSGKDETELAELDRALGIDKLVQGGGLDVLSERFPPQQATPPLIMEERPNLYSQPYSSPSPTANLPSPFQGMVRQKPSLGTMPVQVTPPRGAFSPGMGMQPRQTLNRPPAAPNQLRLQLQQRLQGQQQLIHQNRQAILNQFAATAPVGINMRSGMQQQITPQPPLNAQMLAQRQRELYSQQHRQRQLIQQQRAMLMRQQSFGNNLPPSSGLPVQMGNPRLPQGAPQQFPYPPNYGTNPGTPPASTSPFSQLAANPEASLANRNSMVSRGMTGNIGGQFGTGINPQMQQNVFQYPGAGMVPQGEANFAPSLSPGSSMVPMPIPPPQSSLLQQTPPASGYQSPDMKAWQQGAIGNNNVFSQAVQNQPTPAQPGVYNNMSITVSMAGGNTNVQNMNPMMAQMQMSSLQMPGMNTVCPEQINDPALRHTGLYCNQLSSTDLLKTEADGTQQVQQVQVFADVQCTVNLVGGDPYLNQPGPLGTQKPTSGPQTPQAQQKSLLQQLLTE
# Chain of Nonstructural protein 1 (Q194T2 whole entry): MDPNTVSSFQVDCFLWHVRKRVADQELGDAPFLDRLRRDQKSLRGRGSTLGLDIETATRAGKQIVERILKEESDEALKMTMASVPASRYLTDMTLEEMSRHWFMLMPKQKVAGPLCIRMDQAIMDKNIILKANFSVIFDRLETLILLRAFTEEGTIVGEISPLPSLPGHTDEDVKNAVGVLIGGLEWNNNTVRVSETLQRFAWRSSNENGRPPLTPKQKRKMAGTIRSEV
structure (smiles),measurement,setting,value
Cc1ccc(C2=NN(S(=O)(=O)c3ccccc3)C(c3ccccc3O)C2)cc1 (stereo unspecified),IC50,Coagulation factor XII,> 50 µM (inactive)
same,AC50,[1],> 100 µM (inactive)
CCn1c(=O)c2c3c(sc2n2c(=S)[nH]nc12)CCC3,IC50,[2],> 64 µM (inactive)
same,IC50,[3],26.4 µM (active)
same,IC50,[4],4.78 µM (active)
same,IC50,[5],> 100 µM (inactive)
CCOc1ccc(N(CC(=O)Nc2ccc3c(c2)OCCO3)S(=O)(=O)c2c(C)noc2C)cc1,IC50,Coagulation factor XII,> 50 µM (inactive)
O=C1c2ccccc2-c2onc3ccc(N4CCCC4)c1c23,IC50,Nonstructural protein 1,23.6 µM (active)
same,IC50,[2],50 µM (inactive)
same,EC50,[6],> 260 µM (inactive)
same,AC50,[7],1.67 µM (active)
same,EC50,Protein RecA,0.606 µM (active)
same,AC50,[1],15.1 µM (active)
same,AC50,[8],> 380 µM (inactive)
O=C(COC(=O)COc1ccccc1Cl)Nc1ccccc1OC(F)F,IC50,Coagulation factor XII,> 50 µM (inactive)
COc1ccc2oc(-c3ccccc3)c(C(=O)N3CCOCC3)c2c1,AC50,Trypsin,4.55 µM (active)
CC(C)(C)c1cc(C(=S)N2CCN(CCO)CC2)cc(C(C)(C)C)c1O,EC50,[9],> 79.4 µM (not active)
same,IC50,[4],13.4 µM (active)
same,IC50,[5],> 100 µM (inactive)
same,EC50,[10],> 79.4 µM (not active)
same,EC50,[11],> 79.4 µM (not active)
